From patent US11498928B2, “Macrocyclic spiroethers as Mcl-1 inhibitors” (ASCENTAGE PHARMA (SUZHOU) CO., LTD., priority 2019, dated 2022)

Experiments:
[1] = target: T1, Mcl-1 protein (residues 171-323) (Homo sapiens, UniProt Q07820); assay: Inhibition of Mcl-1 by fluorescence polarization (FP) competitive binding assay with FAM-Bid tracer; conditions: 2 nM FAM-Bid, 20 nM Mcl-1, 30 min
T1 construct: Tag-free Mcl-1 protein (residues 171-323) was used in the FP assay
Summary of the method: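 Tag-free Mcl-1 (20 nM) with 2 nM FAM-Bid peptide in PBS, 0.01% BGG, 0.01% Triton X-100, 5% DMSO, 30 min at room temperature. FP read at Ex 485/Em 528 nm. IC50 from 10-point curves normalised to DMSO and no-protein controls.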

OPM-2 cells = assay: Cell viability assay (OPM-2 cells), CCK-8; type: cell-based; conditions: Homo sapiens, OPM-2, 24 h, 5% FBS
Summary of the method: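 OPM-2 myeloma cells (20000/well) exposed to serially diluted compound for 24 h at 37 °C, 5% CO2, then incubated 4 h with CCK-8 and read at 450 nm. Readings normalized to vehicle; IC50 from nonlinear regression.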

NCI-H929 cells = assay: Cell viability assay (NCI-H929 cells), CCK-8; type: cell-based; conditions: Homo sapiens, NCI-H929, 24 h, 5% FBS
Summary of the method: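 NCI-H929 cells from ATCC were seeded at 20000 cells/well in 95 μL of culture medium in 96-well plates and grown for 4 hrs. Compounds, serially diluted in DMSO and further diluted in medium, were added as 5 μL, and cells were incubated for 24 hrs at 37° C. with 5% CO2. Viability was measured with CCK-8.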

T1 sequence (Q07820 171-323): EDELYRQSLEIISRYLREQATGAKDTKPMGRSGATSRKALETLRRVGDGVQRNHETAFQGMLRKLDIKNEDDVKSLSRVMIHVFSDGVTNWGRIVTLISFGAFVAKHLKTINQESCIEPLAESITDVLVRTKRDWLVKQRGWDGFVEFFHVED

| SMILES | IC50 [1] [nM] | IC50 (NCI-H929 cells) [nM] | IC50 (OPM-2 cells) [nM] |
| --- | --- | --- | --- |
| CC(=O)N(C)CCO[C@H]1C2=C[C@@H](C2)[C@H](C)[C@@H](C)S(=O)(=O)NC(=O)c2ccc3c(c2)N(C[C@@H]2CC[C@H]21)C[C@@]1(CCCc2c1ccc(Cl)c2F)CO3 [compound 80, N-(2-(((1S,11′R,12′S,13′R,16′R,16a′R,18a′R,E)-6-chloro-5-fluoro-11′,12′-dimethyl-10′,10′-dioxido-8′-oxo-3,4,8′,9′,12′,13′,16′,16a′,17′,18′,18a′,19′-dodecahydro-1′H,2H,3′H, 11′H-spiro[naphthalene-1,2′-[5,7]etheno[13,15]methanocyclobuta[i][1,4]oxazepino[3,4-f][1]thia[2,7]diazacyclohexadecin]-16′-yl)oxy)ethyl)-N-methylacetamide] | 13 | 62 | 158 |
| C[C@@H]1[C@@H](C)S(=O)(=O)NC(=O)c2ccc3c(c2)N(C[C@@H]2CC[C@H]2[C@@H](OCCN2CCNC(=O)C2)C2=C[C@H]1C2)C[C@@]1(CCCc2c1ccc(Cl)c2F)CO3 [compound 85, (1S,11′R,12′S,13′R,16′R,16a′R,18a′R,E)-6-chloro-5-fluoro-11′,12′-dimethyl-16′-(2-(3-oxopiperazin-1-yl)ethoxy)-3,4,12′,13′,16′,16a′,17′,18′,18a′,19′-decahydro-1′H,2H,3′H, 11′H-spiro[naphthalene-1,2′-[5,7]etheno[13,15]methanocyclobuta[i][1,4]oxazepino[3,4-f][1]thia[2,7]diazacyclohexadecin]-8′(9′H)-one 10′,10′-dioxide] | 20 | 73 | 124 |
| CC(=O)N1CCN(CCO[C@H]2C3=C[C@@H](C3)[C@H](C)[C@@H](C)S(=O)(=O)NC(=O)c3ccc4c(c3)N(C[C@@H]3CC[C@H]32)C[C@@]2(CCCc3c2ccc(Cl)c3F)CO4)CC1 [compound 87, (1S,11′R,12′S,13′R,16′R,16a′R,18a′R,E)-16′-(2-(4-acetylpiperazin-1-yl)ethoxy)-6-chloro-5-fluoro-11′,12′-dimethyl-3,4,12′,13′,16′,16a′,17′,18′,18a′,19′-decahydro-1′H,2H,3′H, 11′H-spiro[naphthalene-1,2′-[5,7]etheno[13,15]methanocyclobuta[i][1,4]oxazepino[3,4-f][1]thia[2,7]diazacyclohexadecin]-8′(9′H)-one 10′,10′-dioxide] | 8.5 | 27 | 369 |
| C[C@@H]1[C@@H](C)S(=O)(=O)NC(=O)c2ccc3c(c2)N(C[C@@H]2CC[C@H]2[C@@H](OCCN2CCS(=O)(=O)CC2)C2=C[C@H]1C2)C[C@@]1(CCCc2c1ccc(Cl)c2F)CO3 [compound 88, (1S,11′R,12′S,13′R,16′R,16a′R,18a′R,E)-6-chloro-16′-(2-(1,1-dioxidothiomorpholino)ethoxy)-5-fluoro-11′,12′-dimethyl-3,4,12′,13′,16′,16a′,17′,18′,18a′,19′-decahydro-1′H,2H,3′H,11′H-spiro[naphthalene-1,2′-[5,7]etheno[13,15]methanocyclobuta[i][1,4]oxazepino[3,4-f][1]thia[2,7]diazacyclohexadecin]-8′(9′H)-one 10′,10′-dioxide] | 13 | 40 | 118 |
| C[C@@H]1[C@@H](C)S(=O)(=O)NC(=O)c2ccc3c(c2)N(C[C@@H]2CC[C@H]2[C@@H](OCCN2CCN(C4CCOCC4)CC2)C2=C[C@H]1C2)C[C@@]1(CCCc2c1ccc(Cl)c2F)CO3 [compound 89, (1S,11′R,12′S,13′R,16′R,16a′R,18a′R)-6-chloro-5-fluoro-11′,12′-dimethyl-16′-(2-(4-(tetrahydro-2H-pyran-4-yl)piperazin-1-yl)ethoxy)-3,4,12′,13′,16′,16a′,17′,18′,18a′,19′-decahydro-1′H,2H,3′H, 11′H-spiro[naphthalene-1,2′-[5,7]etheno[13,15]methanocyclobuta[i][1,4]oxazepino[3,4-f][1]thia[2,7]diazacyclohexadecin]-8′(9′H)-one 10′,10′-dioxide] | 11 | 7.5 | 53 |
| CC(C)N1CCN(CCO[C@H]2C3=C[C@@H](C3)[C@H](C)[C@@H](C)S(=O)(=O)NC(=O)c3ccc4c(c3)N(C[C@@H]3CC[C@H]32)C[C@@]2(CCCc3c2ccc(Cl)c3F)CO4)CC1 [compound 90, (1S,11′R,12′S,13′R,16′R,16a′R,18a′R,E)-6-chloro-5-fluoro-16′-(2-(4-isopropylpiperazin-1-yl)ethoxy)-11′,12′-dimethyl-3,4,12′,13′,16′,16a′,17′,18′,18a′,19′-decahydro-1′H,2H,3′H, 11′H-spiro[naphthalene-1,2′-[5,7]etheno[13,15]methanocyclobuta[i][1,4]oxazepino[3,4-f][1]thia[2,7]diazacyclohexadecin]-8′(9′H)-one 10′,10′-dioxide] | 12 | 1.6 | 20 |

Now from value to compound, other results behind:

| IC50 [1] [nM] | IC50 (NCI-H929 cells) [nM] | SMILES | IC50 (OPM-2 cells) [nM] |
| --- | --- | --- | --- |
| 17 | 360 | C[C@@H]1[C@@H](C)S(=O)(=O)NC(=O)c2ccc3c(c2)N(C[C@@H]2CC[C@H]2[C@@H](OCCN2CC4(CN(C)C4)C2)C2=C[C@H]1C2)C[C@@]1(CCCc2c1ccc(Cl)c2F)CO3 [compound 81, (1S,11′R,12′S,13′R,16′R,16a′R,18a′R,E)-6-chloro-5-fluoro-11′,12′-dimethyl-16′-(2-(6-methyl-2,6-diazaspiro[3.3]heptan-2-yl)ethoxy)-3,4,12′,13′,16′,16a′,17′,18′,18a′,19′-decahydro-1′H,2H,3′H, 11′H-spiro[naphthalene-1,2′-[5,7]etheno[13,15]methanocyclobuta[i][1,4]oxazepino[3,4-f][1]thia[2,7]diazacyclohexadecin]-8′(9′H)-one 10′,10′-dioxide] | 667 |
| 31 | 56 | C[C@@H]1[C@@H](C)S(=O)(=O)NC(=O)c2ccc3c(c2)N(C[C@@H]2CC[C@H]2[C@@H](OCCN2C[C@@H](C)O[C@@H](C)C2)C2=C[C@H]1C2)C[C@@]1(CCCc2c1ccc(Cl)c2F)CO3 [compound 82, (1S,11′R,12′S,13′R,16′R,16a′R,18a′R,E)-6-chloro-16′-(2-((2S,6R)-2,6-dimethylmorpholino)ethoxy)-5-fluoro-11′,12′-dimethyl-3,4,12′,13′,16′,16a′,17′,18′,18a′,19′-decahydro-1′H,2H,3′H,11′H-spiro[naphthalene-1,2′-[5,7]etheno[13,15]methanocyclobuta[i][1,4]oxazepino[3,4-f][1]thia[2,7]diazacyclohexadecin]-8′(9′H)-one 10′,10′-dioxide] | 54 |
| 25 | 220 | C[C@@H]1[C@@H](C)S(=O)(=O)NC(=O)c2ccc3c(c2)N(C[C@@H]2CC[C@H]2[C@@H](OCCN2C[C@@H](C)N[C@@H](C)C2)C2=C[C@H]1C2)C[C@@]1(CCCc2c1ccc(Cl)c2F)CO3 [compound 83, (1S,11′R,12′S,13′R,16′R,16a′R,18a′R,E)-6-chloro-16′-(2-((3 S,5R)-3,5-dimethylpiperazin-1-yl)ethoxy)-5-fluoro-11′,12′-dimethyl-3,4,12,′13′,16′,16a′,17′,18′,18a′,19′-decahydro-1′H,2H,3′H,11′H-spiro[naphthalene-1,2′-[5,7]etheno[13,15]methanocyclobuta[i][1,4]oxazepino[3,4-f][1]thia[2,7]diazacyclohexadecin]-8′(9′H)-one 10′,10′-dioxide] | 164 |
| 20 | 76 | C[C@@H]1[C@@H](C)S(=O)(=O)NC(=O)c2ccc3c(c2)N(C[C@@H]2CC[C@H]2[C@@H](OCCN2C[C@@H](C)N(C)[C@@H](C)C2)C2=C[C@H]1C2)C[C@@]1(CCCc2c1ccc(Cl)c2F)CO3 [compound 84, (1S,11′R,12′S,13′R,16′R,16a′R,18a′R,E)-6-chloro-5-fluoro-11′,12′-dimethyl-16′-(2-((3 S,5R)-3,4,5-trimethylpiperazin-1-yl)ethoxy)-3,4,12′,13′,16′,16a′,17′,18′,18a′,19′-decahydro-1′H,2H,3′H, 11′H-spiro[naphthalene-1,2′-[5,7]etheno[13,15]methanocyclobuta[i][1,4]oxazepino[3,4-f][1]thia[2,7]diazacyclohexadecin]-8′(9′H)-one 10′,10′-dioxide] | 65 |
| 10 | 3.8 | C[C@@H]1[C@@H](C)S(=O)(=O)NC(=O)c2ccc3c(c2)N(C[C@@H]2CC[C@H]2[C@@H](OCCN2CCN(C)CC2)C2=C[C@H]1C2)C[C@@]1(CCCc2c1ccc(Cl)c2F)CO3 [compound 86, (1S,11′R,12′S,13′R,16′R,16a′R,18a′R,E)-6-chloro-5-fluoro-11′,12′-dimethyl-16′-(2-(4-methylpiperazin-1-yl)ethoxy)-3,4,12′,13′,16′,16a′,17′,18′,18a′,19′-decahydro-1′H,2H,3′H, 11′H-spiro[naphthalene-1,2′-[5,7]etheno[13,15]methanocyclobuta[i][1,4]oxazepino[3,4-f][1]thia[2,7]diazacyclohexadecin]-8′(9′H)-one 10′,10′-dioxide] | 64 |
